Reference: patent publication US20260098008A1, “COVALENT, CHEMOGENETIC ACTIVATORS FOR K2P POTASSIUM CHANNELS AND USES THEREOF” (THE REGENTS OF THE UNIVERSITY OF CALIFORNIA, priority 2022, published 2026)
Residue numbers refer to the chain shown, from its start. Values joined by “and” are separate entries in the source; they are usually repeats but may differ in a detail not shown here. Equal entries are not always repeated.

What was measured:
K2P4.1 (TRAAK) = target: T1, K2P4.1 (TRAAK) (Homo sapiens, UniProt Q9NYG8); conditions: previous studies; cited from earlier work
T1 sequence (Q9NYG8 1-393): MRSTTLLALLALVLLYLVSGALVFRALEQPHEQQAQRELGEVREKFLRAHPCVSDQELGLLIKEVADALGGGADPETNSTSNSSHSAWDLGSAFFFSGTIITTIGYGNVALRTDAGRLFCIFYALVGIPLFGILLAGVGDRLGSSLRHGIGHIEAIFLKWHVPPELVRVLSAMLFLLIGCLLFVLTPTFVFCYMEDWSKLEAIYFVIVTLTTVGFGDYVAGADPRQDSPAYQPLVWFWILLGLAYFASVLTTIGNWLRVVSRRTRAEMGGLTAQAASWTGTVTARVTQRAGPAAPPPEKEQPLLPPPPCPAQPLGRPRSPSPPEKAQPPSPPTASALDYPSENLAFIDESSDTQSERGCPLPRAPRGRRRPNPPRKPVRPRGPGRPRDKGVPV

[1] = Solubility in aqueous solutions (crystallization sample preparation); assay type: physicochemical
Description: K2P2.1cryst ML335 and ML402 complex crystals grew in the same conditions as K2P2.1cyst, but the protein was incubated for at least 1 h with 2.5 mM of activator before setting the crystal plates. […] Then each compound was diluted 1:100 in SEC buffer to 5 mM concentration, giving a milky solution. This solution was mixed 1:1 to K2P2.1cryst previously concentrated to 12 mg ml^−1. […] The samples were briefly centrifuged in a table-top centrifuge (10,000 g) to remove any insoluble material before setting the crystal plates.

K2P2.1 (TREK-1) S131A = target: T2, K2P2.1 (TREK-1) S131A (Mus musculus, UniProt P97438, S146A); assay: TEVC in Xenopus oocytes; assay type: cell-based; conditions: 20 μM, 0 mV
T2 construct: expressed in transfected cells; host or cells: Xenopus laevis oocytes injected with mRNA
T2 sequence (P97438 1-411 isoform P97438-2 S131A): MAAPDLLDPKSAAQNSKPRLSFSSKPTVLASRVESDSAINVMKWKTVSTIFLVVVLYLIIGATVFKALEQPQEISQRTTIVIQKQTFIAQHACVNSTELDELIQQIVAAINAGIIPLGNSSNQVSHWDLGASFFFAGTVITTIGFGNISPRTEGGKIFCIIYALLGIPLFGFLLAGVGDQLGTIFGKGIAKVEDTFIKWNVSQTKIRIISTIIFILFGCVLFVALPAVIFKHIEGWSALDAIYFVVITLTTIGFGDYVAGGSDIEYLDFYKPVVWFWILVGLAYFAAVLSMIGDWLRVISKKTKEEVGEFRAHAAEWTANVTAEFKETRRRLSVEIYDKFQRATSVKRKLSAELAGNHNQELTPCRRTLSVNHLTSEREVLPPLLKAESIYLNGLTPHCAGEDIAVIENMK
Source text: (§1) Mouse K2P2.1 (TREK-1) (Genbank accession number: NP_034737.2), mouse K2P10.1 (TREK-2) (NM_001316665.1), mouse K2P4.1 (TRAAK) (NM_008431.3), human K2P4.1 (TRAAK) (NM_033310.2) and mouse K2P18.1(TRESK) (NM_207261.3) were used for this study. Point mutations were introduced by site-directed mutagenesis using custom primers and confirmed by sequencing before use. For studies using Xenopus oocytes, K2P channels were subcloned into a previously reported pGEMHE/pMO vector (46). For expression in HEK293 cells, mouse K2P2.1 (TREK-1) and mutants were expressed from a previously described pIRES2-EGFP vector in HEK293 cells (46,47). K2P2.1 (TREK-1) tandems were constructed by connecting the open reading frames for the individual subunits with a linker encoding the […] (SEQ ID NO: 19) sequence. Tandems used for HEK293 cells included an N-terminal HA tag ([…] (SEQ ID NO: 20)) on the first subunit.
(§2) Xenopus laevis oocytes were harvested according to UCSF IACUC Protocol AN129690 and digested using collagenase (Worthington Biochemical Corporation, #LS004183, 0.8-1.0 mg/mL) in Ca^21-free ND96 (96 mM NaCl, 2 mM KCl, 3.8 mM MgCl2, 5 mM HEPES pH 7.4) immediately post-harvest, as previously reported (31,33). Oocytes were maintained at 18° C. in ND96 (96 mM NaCl, 2 mM KCl, 1.8 mM CaCl2, 2 mM MgCl2, 5 mM HEPES pH 7.4) supplemented with antibiotics (100 units mL^−1 penicillin, 100 μg mL^−1 streptomycin, 50 μg mL^−1 gentimycin) and used for experiments within one week of harvest.
(§3) Defolliculated stage V-VI oocytes were microinjected with 0.5-36 ng mRNA and currents were recorded within 16-48 h hours of injection.
(§4) For recordings, oocytes were impaled with borosilicate recording microelectrodes (0.4-2.0 MΩ resistance) backfilled with 3 M KCl and were subjected to constant perfusion of ND96 at a rate of 3 ml min^−1. Recording solutions containing K2P activators were prepared immediately prior to use from DMSO stocks (20-100 mM), with final DMSO concentrations of 0.1%. Currents were evoked from a −80 mV holding potential followed by a 300 ms ramp from −150 mV to +50 mV. Data were recorded using a GeneClamp 500B amplifier (MDS Analytical Technologies) controlled by pCLAMP8 software (Molecular Devices), and digitized at 1 kHz using Digidata 1332 Å digitizer (MDS Analytical Technologies). For each recording, control solution (ND96) was perfused over a single oocyte until current was stable before switching to solutions containing the test compounds at various concentrations. Representative traces and dose response plots were generated in GraphPad Prism 9.

K2P2.1 (TREK-1) = target: T3, K2P2.1 (TREK-1) (Mus musculus, UniProt P97438); assay: Two-electrode voltage clamp (TEVC) in Xenopus oocytes; assay type: cell-based; conditions: for Fold-activation (I activator/I control): currents at 0 mV; for TREK-1 activity class: Fold-activation at 20 uM in oocytes
T3 construct: expressed in transfected cells; host or cells: Xenopus laevis oocytes injected with mRNA (pGEMHE/pMO vector)
T3 sequence (P97438 1-411 isoform P97438-2): T2 sequence (P97438 1-411 isoform P97438-2 S131A) with A131S
Source text: as §1, §2, §3, §4

[2] = target: T4, TREK-1^CG* (K2P2.1 (TREK-1) S131C) (Mus musculus, UniProt P97438, S146C); assay: TEVC in Xenopus oocytes; assay type: cell-based; conditions: for TREK-1 GC activity class: Fold-activation at 20 uM in oocytes
T4 construct: expressed in transfected cells; host or cells: Xenopus laevis oocytes injected with mRNA
T4 sequence (P97438 1-411 isoform P97438-2 S131C): T2 sequence (P97438 1-411 isoform P97438-2 S131A) with A131C
Source text: as §1, §2, §3, §4

K2P10.1 (TREK-2)^CG* = target: T5, K2P10.1 (TREK-2)^CG* (Mus musculus, UniProt Q8BUW1, S153C); assay: TEVC in Xenopus oocytes; assay type: cell-based; conditions: Fold-activation at 20 uM in oocytes
T5 construct: Modified TREK-2 from Mus musculus; expressed in transfected cells; host or cells: Xenopus laevis oocytes injected with mRNA
T5 sequence (Q8BUW1 with tags, fused parts or gaps S153C): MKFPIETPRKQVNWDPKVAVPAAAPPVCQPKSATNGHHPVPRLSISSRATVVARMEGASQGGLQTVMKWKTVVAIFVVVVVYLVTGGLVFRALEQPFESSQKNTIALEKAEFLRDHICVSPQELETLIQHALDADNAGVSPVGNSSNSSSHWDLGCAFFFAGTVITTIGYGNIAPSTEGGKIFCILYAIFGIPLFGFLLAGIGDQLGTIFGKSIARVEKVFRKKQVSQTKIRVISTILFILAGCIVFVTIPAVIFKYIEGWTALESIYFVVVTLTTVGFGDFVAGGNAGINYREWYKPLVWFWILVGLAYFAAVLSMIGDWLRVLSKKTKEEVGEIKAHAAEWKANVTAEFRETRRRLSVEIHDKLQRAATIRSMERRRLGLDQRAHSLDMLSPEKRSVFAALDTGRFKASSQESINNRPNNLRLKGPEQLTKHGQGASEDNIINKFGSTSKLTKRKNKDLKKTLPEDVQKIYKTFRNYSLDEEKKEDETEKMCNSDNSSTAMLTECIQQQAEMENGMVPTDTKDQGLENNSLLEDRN
Source text: as §1, §2, §3, §4

TREK-2 = target: T6, TREK-2 (Mus musculus, UniProt Q8BUW1); assay: TEVC in Xenopus oocytes; assay type: cell-based; conditions: Fold-activation at 20 uM in oocytes
T6 construct: expressed in transfected cells; host or cells: Xenopus laevis oocytes injected with mRNA
T6 sequence (Q8BUW1 with tags, fused parts or gaps): T5 sequence (Q8BUW1 with tags, fused parts or gaps S153C) with C156S
Source text: as §1, §2, §3, §4

| Structure (SMILES) | TREK-1 GC activity class [2] | TREK-1 activity class (K2P2.1 (TREK-1)) | TREK-2 GC activity class (K2P10.1 (TREK-2)^CG*) | also measured |
| --- | --- | --- | --- | --- |
| Cc1cc(Cl)ccc1OCCNC(=O)c1cccs1 [ML402] | – | – | – | Sensitivity of channel to activator (K2P4.1 (TRAAK)): insensitive; Solubility in aqueous solutions [1]: insoluble in aqueous solutions |
| C=CC(=O)Nc1ccc(C(=O)NCc2ccc(Cl)cc2Cl)cc1 [ML336] | – | – | – | Fold-activation (I activator/I control) (K2P2.1 (TREK-1) S131A): 16.1 (FIG. 1) fold; Reversibility of activation on washout (K2P2.1 (TREK-1); 20 μM, Xenopus oocytes): sustained following washout; Fold-activation (I activator/I control) (K2P2.1 (TREK-1); 20 μM, Xenopus oocytes): 10+1.0 fold and 10.0 (FIG. 1) fold |
| O=C(NCc1ccc(Cl)cc1Cl)c1ccc(N2C(=O)CCC2=O)cc1 [CAT335c] | – | – | – | Fold-activation (I activator/I control) ([2]; 20 μM, 0 mV, Xenopus oocytes): 5.0 ± 0.4 fold; Reversibility of activation on washout ([2]; 20 μM, Xenopus oocytes): reversible; Fold-activation (I activator/I control) (K2P2.1 (TREK-1); 20 μM, Xenopus oocytes): 2.09 ± 0.14 fold |
| O=C(NCc1ccc(Cl)cc1Cl)c1ccc(C(=O)N2CCS2(=O)=O)cc1 [Entry 48] | + (1.5-2.5 fold) | + (1.5-2.5 fold) | – | – |
| C#CCNC(=O)CCC(=C)C(=O)Nc1ccc(C(=O)NCc2ccc(Cl)cc2Cl)cc1 [Entry 2] | +++ (>5 fold) | +++ (>5 fold) | – | – |
| O=C(NCc1ccc(Cl)cc1Cl)c1ccc(N2C(=O)C=CC2=O)cc1 [Entry 16] | +++ (>5 fold) | + (1.5-2.5 fold) | +++ (>5 fold) | TREK-2 activity class (TREK-2): + (1.5-2.5 fold) |
| C=C(CCC(=O)O)C(=O)Nc1ccc(C(=O)NCc2ccc(Cl)cc2Cl)cc1 [Entry 3] | ++ (2.5-5 fold) | ++ (2.5-5 fold) | – | – |
| CC1=CC(=O)N(c2ccc(C(=O)NCc3ccc(Cl)cc3Cl)cc2)C1=O [Entry 15] | +++ (>5 fold) | + (1.5-2.5 fold) | +++ (>5 fold) | TREK-2 activity class (TREK-2): + (1.5-2.5 fold) |
| CC1=C(C)C(=O)N(c2ccc(C(=O)NCc3ccc(Cl)cc3Cl)cc2)C1=O [Entry 20] | ++ (2.5-5 fold) | – | + (1.5-2.5 fold) | – |
